Test results published in paper PMC4721062, “Oxadiazole-2-oxides may have other functional targets, in addition to SjTGR, through which they cause mortality in Schistosoma japonicum” (Parasites & Vectors, 2016).
Where two headings read alike, the source gives them in different places.

Key:
recombinant SjTGR = molecular target: T1, recombinant SjTGR (Schistosoma japonicum, UniProt B5THG7); assay: Inhibition of TrxR activity of recombinant SjTGR (DTNB assay); format: biochemical; details: IC50 of SjTGR, 50 nM SjTGR, 1 mM NADPH, 15 min preincubation, DTNB reduction
T1 sequence (B5THG7 1-596): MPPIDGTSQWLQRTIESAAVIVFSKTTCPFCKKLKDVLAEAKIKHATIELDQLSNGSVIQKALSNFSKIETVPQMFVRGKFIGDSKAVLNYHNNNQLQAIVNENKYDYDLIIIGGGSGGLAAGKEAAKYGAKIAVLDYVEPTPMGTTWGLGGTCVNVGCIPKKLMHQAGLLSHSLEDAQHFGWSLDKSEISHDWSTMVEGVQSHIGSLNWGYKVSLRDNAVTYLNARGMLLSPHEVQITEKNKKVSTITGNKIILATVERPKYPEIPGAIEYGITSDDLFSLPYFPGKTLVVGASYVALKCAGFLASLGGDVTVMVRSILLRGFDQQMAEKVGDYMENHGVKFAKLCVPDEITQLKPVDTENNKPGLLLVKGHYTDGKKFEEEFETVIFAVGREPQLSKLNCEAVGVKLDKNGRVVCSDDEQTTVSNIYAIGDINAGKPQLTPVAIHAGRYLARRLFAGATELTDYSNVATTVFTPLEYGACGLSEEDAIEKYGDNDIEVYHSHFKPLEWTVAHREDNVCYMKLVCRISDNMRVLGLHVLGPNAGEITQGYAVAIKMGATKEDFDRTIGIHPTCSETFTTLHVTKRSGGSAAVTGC
Method: The purified recombinant SjTGR proteins were produced according to the method described by Song et al.. The inhibition of TrxR activity by the recombinant SjTGR was performed as reported by Rai et al.. Briefly, 50 nM SjTGR and 1 mM NADPH were incubated with different concentrations of oxadiazole-2-oxides (2, 4, 6, 10, 20 μM) for 15 min at room temperature. Then, potassium phosphate buffer (pH 7.4) containing 10 mM EDTA, 100 μM NADPH, and 3 mM DTNB was added to start the reaction. The increase of absorbance at 412 nm was monitored during the first 2 min. All assays were done in triplicate.
50 nM SjTGR and 1 mM NADPH were incubated with different concentrations of oxadiazole-2-oxides (2, 4, 6, 10, 20 μM) for 15 min at room temperature. Then, potassium phosphate buffer (pH 7.4) containing 10 mM EDTA, 100 μM NADPH, 3 mM DTNB was added to start the reaction. The increase in absorbance at 412 nm was monitored during the first 2 min. All assays were done in triplicate. Results shown are the mean ± SD (n = 3)

[1] = system: juvenile S. japonicum in mice; assay: Treatment of infected mice at juvenile worm stage; format: in vivo, Schistosoma japonicum (ICR mice); details: 10 mg/kg i.p. daily for 5 days from day 7 post-infection
Method: (§1) The abdominal skin of each mouse (ICR, female, 22–24 g) was exposed to 20 S. japonica cercariae (as described above). The mice were intraperitoneally injected with 10 mg/kg oxadiazole-2-oxides daily for 5 days, beginning either 7 or 35 days post-infection. Control mice were treated with 10 mg/kg of the carrier medium. All mice were sacrificed 42 days post-infection. The worm burden of each mouse was confirmed by counting the number of worms observed from a portal vein perfusion. The mouse livers were digested overnight with 5 % potassium hydroxyl solution at 37 °C and the eggs in the liver tissue were counted under an inverted phase contrast microscope. The worm and egg reduction rates were calculated using the following formulas: Wormreductionrate%=meannumberofadultwormspermouseincontrolgroup−meannumberofadultwormspermouseinexperimentalgroup/meannumberofadultwormspermouseincontrolgroup. Eggreductionrate%=meannumberofeggspermouseincontrolgroup−meannumberofeggspermouseinexperimentalgroup/meannumberofeggspermouseincontrolgroup.

juvenile S. japonicum = assay: microbe, parasite or virus in culture; format: cell-based; details: juvenile worms
Method: Infected Oncomelania hupensis, provided by the Department of Snail Biology, Jiangsu Institute of Parasitic Diseases, were incubated at 25–28 °C, under illumination, for 2 h to hatch S. japonicum cercariae. The cercariae were collected from the water surface with clean cover glass and placed into a centrifuge tube using pre cooled RPMI 1640. Centrifugation was performed for 1 min at 1500 rpm, and then the steps above were repeated. After centrifugation, the supernatant solution was removed. The cercariae at the bottom were washed twice and resuspended with RPMI 1640. Approximately 20–30 cercariae (1 mL of the resuspension medium) were added to one well in a 24-well culture plate. They were incubated overnight at 37 °C with 5 % CO2. The survival rates and number of tails shed were observed under an inverted microscope. Cercariae that had shed their tails were used as juvenile S. japonicum.
20–30 juvenile worms were transferred into each well of a 24-well culture plate, containing 2 mL RPMI 1640 medium, 20 mM HEPES, 100 IU/mL penicillin, […] streptomycin and 10 % fetal bovine serum. Then, oxadiazole-2-oxides (2, 5, 10, and 50 μM), diluted with the RPMI 1640 medium, were added to their allocated wells. The worms in the negative control wells were treated with equal volumes of RPMI 1640 or DMSO and worms treated with AS were observed as positive controls. The juvenile worms’ survival rates were observed under an inverted phase contrast microscope (Leica, Wetzlar, Germany) at 24, 48 and 72 h. Parasite death was defined as an unclear internal structure of the juvenile worms, with incomplete tegument and contents overflowing radially, or unclear internal structure with complete tegument, but having no motor activity during 1 min of continuous observation. All assays were repeated three times.
^b Data collected by visual examination of worm movement and shape; % D = The number of worms dead / The total number of worms observed, and worms dead judged by unclear internal structure of juvenile worms with uncompleted tegument, and contents overflowing radially, or unclear internal structure with complete tegument, but having no motor activity during 1 min of continuous observation. The data presented are the average of three independent experiments.

adult S. japonicum = assay: microbe, parasite or virus in culture; format: cell-based; details: adult worms
Description: ICR mice (20–22 g), were obtained from the Shanghai Sub-Center of Experimental Animals, Chinese Academy of Sciences. They were maintained at the Department of Experimental Animals, Jiangsu Institute of Parasitic Diseases. To infect each mouse, its abdominal skin was exposed to 50 S. japonica cercariae. All of the mice were executed to collect S. japonica adult worms, through portal vein perfusion, 35 days post-infection. The adult S. japonica collected were washed with RPMI 1640 medium and then kept in RPMI 1640 medium (pH 7.5) with HEPES 20 mM, penicillin (100 IU/mL), streptomycin ([…]) and 10 % fetal bovine serum. Then, two pairs of adult worms were transferred into each well of a 24-well culture plate, with 2 mL of the same medium. The worms were cultured at 37 °C in a humid atmosphere with 5 % CO2.
Adult worms were cultured in a 24-well culture plate for 30–60 min at 37 °C, in a humid atmosphere with 5 % CO2. Then, oxadiazole-2-oxides at different concentrations (10, 25, 50, 100 μM) were added. Equal volumes of RPMI 1640 or DMSO were applied as negative controls, while PZQ was applied as a positive control. The adult worm mobility and parasite survival rates were monitored using an inverted phase contrast microscope, at 24, 48 and 72 h. Parasite death was defined as there being no motor activity during 2 min of continuous observation, and morphological and tegumental alterations. All assays were repeated three times.
^b Data collected by visual examination of worm movement and shape; n.e. […] The data presented are the average of three independent experiments.

[2] = Cytotoxicity assay on Hela cells (MTT); format: cell-based; details: human
Method: Cytotoxicity assays were performed using Hela cells. Cells in the exponential growth phase were collected by centrifugation and a concentration of 4–5 × 10^4/mL was created. 100 μL of the cell suspension was added to each well of a 96-well plate and cultured overnight at 37 °C in a humid atmosphere with 5 % CO2. Oxadiazole-2-oxides (at 10, 20, 40, 80 and 160 μM) were added. Each concentration was assayed in triplicate, and control wells (no cells and no drugs) were assayed at the same time. The “no cell” control wells only contained RPMI 1640 medium, MTT, DMSO, and oxadiazole-2-oxides. The “no drug” control wells contained the Hela cells, RPMI 1640 medium, MTT and DMSO. The cells were cultured for 48 h at 37 °C in a humid atmosphere with 5 % CO2. Then, 20 μL of 5 mg/mL MTT was added to each well and the culture conditions were maintained for 4 h. After this point, the medium was removed and 150 μL DMSO was added into each well to dissolve any crystallisation. The value of absorbance at 570 nm of each well was measured (at 570 nm) with a microplate reader to assess the toxic effect of the oxadiazole-2-oxides on the vertebrate cells.

[3] = system: adult S. japonicum in mice; assay: Treatment of infected mice at adult worm stage; format: in vivo, Schistosoma japonicum (ICR mice)
Method: as §1

[4] = Schistosoma japonicum, 24 h, read-out: Killing activity 24hr
[5] = Schistosoma japonicum, 48 h, read-out: Killing activity 48hr
[6] = Schistosoma japonicum, 72 h, read-out: Killing activity 72hr
[7] = mice, 10 mg/kg i.p. daily for 5 days from day 35 post-infection, sacrificed day 42

SMILES: C[C@@H]1CC[C@H]2[C@@H](C)C(=O)O[C@@H]3O[C@@]4(C)CC[C@@H]1[C@]32OO4 [AS, artemisinin, reference compound]
- IC50 (recombinant SjTGR): > 20 µM
- Number of eggs per gram of liver (Mean ± SD) ([1]; sacrificed day 42): 2,932.2 ± 1,149.3
- Number of worms (Mean ± SD) ([1]; sacrificed day 42): 2.3 ± 1.0
- Egg reduction rate ([1]; versus control): 63.5 (P < 0.01^*) %
- Worm reduction rate ([1]; versus control, 10 mg/kg): 78.5 (P < 0.01^*) %
- killing at 2 µM (juvenile S. japonicum; [4]): 16.2%
- killing at 2 µM (juvenile S. japonicum; [5]): 24.3%
- killing at 2 µM (juvenile S. japonicum; [6]): 32.4%
- killing at 5 µM (juvenile S. japonicum; [4]): 34.1%
- killing at 5 µM (juvenile S. japonicum; [5]): 36.4%
- killing at 5 µM (juvenile S. japonicum; [6]): 40.9%
- killing at 50 µM (juvenile S. japonicum; Schistosoma japonicum, 50 μM, 24 h, read-out: Killing activity 24hr): 51.3%
- mortality at 50 µM (juvenile S. japonicum; Schistosoma japonicum, 50 μM, 24 h, read-out: Mortality of juvenile worms): 51.3 ± 5.1%
- killing at 50 µM (juvenile S. japonicum; Schistosoma japonicum, 50 μM, 48 h, read-out: Killing activity 48hr): 66.7%
- killing at 50 µM (juvenile S. japonicum; Schistosoma japonicum, 50 μM, 72 h, read-out: Killing activity 72hr): 76.9%
- Killing activity 24hr (juvenile S. japonicum; 10 μM, 24 h): 47.6%D
- Killing activity 48hr (juvenile S. japonicum; 10 μM, 48 h): 66.7%D
- Killing activity 72hr (juvenile S. japonicum; 10 μM, 72 h): 71.4%D

SMILES: O=C(C1CCCCC1)N1CC(=O)N2CCc3ccccc3C2C1 (centres unmarked) [PZQ, praziquantel, reference compound]
- killing at 25 µM (adult S. japonicum; Schistosoma japonicum, 25 μM, 24 h, read-out: Killing activity 24hr): 25%
- mortality at 25 µM (adult S. japonicum; Schistosoma japonicum, 25 μM, 24 h, read-out: Mortality of adult worms): 25 ± 7.8%
- killing at 25 µM (adult S. japonicum; Schistosoma japonicum, 25 μM, 48 h, read-out: Killing activity 48hr): 25%
- killing at 25 µM (adult S. japonicum; Schistosoma japonicum, 25 μM, 72 h, read-out: Killing activity 72hr): 62.5%
- killing at 50 µM (adult S. japonicum; [4]): 25%
- killing at 50 µM (adult S. japonicum; [5]): 37.5%
- killing at 50 µM (adult S. japonicum; [6]): 62.5%
- killing at 100 µM (adult S. japonicum; [4]): 37.5%
- killing at 100 µM (adult S. japonicum; [5]): 50%
- killing at 100 µM (adult S. japonicum; [6]): 87.5%
- Killing activity 24hr (adult S. japonicum; 10 μM, 24 h): 25.0%D
- Killing activity 48hr (adult S. japonicum; 10 μM, 48 h): 25.0%D
- Killing activity 72hr (adult S. japonicum; 10 μM, 72 h): 37.5%D
- viability at 72 h, 80 µM [2]: 76%
- IC50 (recombinant SjTGR): > 20 µM
- Reduction in the female worms ([3]; mice treated at adult worm stage (data not shown)): 60.5%
- Number of eggs per gram of liver (Mean ± SD) [3, 7]: 3721.5 ± 1600.6
- Number of worms (Mean ± SD) [3, 7]: 3.3 ± 1.7
- Egg reduction rate ([3]; mice, 10 mg/kg i.p. daily for 5 days from day 35 post-infection, versus control): 53.7 (P < 0.01^*) %
- Worm reduction rate ([3]; mice, 10 mg/kg i.p. daily for 5 days from day 35 post-infection, versus control, 10 mg/kg): 72.3 (P < 0.01^*) %
